Assay results taken from patent publication US10526283B2, “Prodrugs of dithiol mucolytic agents” (PARION SCIENCES, INC., priority 2015, dated 2020).
Where a name gives a salt, the structure may show the parent alone. One block for each compound: values may come before it.

Tests used:
[1] = Pro-drug DTNB assay without enzyme (reducing activity); format: biochemical; details: for reducing activity in DTNB assay without enzyme: no esterase added
From the text: (§1) This assay was designed to determine whether prodrug caps added on to our dithiol mucolytic compounds can be cleaved from the molecule. If so, the outcome would be an “active” compound that is able to reduce the S—S bond in DTNB. When cleaved the resulting compound, NTB (2-nitro-5-thiobenzoate), is a colored product that can be measured spectrophotometrically at an absorbance of 412 nm (Abs412). Using the molar extinction coefficient of NTB and measured maximum Abs412, the molar amount of DTNB that reacted with our mucolytic agents can be calculated. Dithiol mucolytic compounds react at a 2:1 stoichiometric ratio with DTNB (i.e. 2 molecules of NTB are produced for every one molecule of a dithiol compound that is oxidized). Dithiol prodrugs were mixed at a final concentration of 22.5 μM with excess DTNB (100 μM final) in 1 mL 50 mM Tris-HCl buffer (pH 7.5) and maximum Abs412 was measured. In the absence of a purified hydrolytic enzyme (e.g. porcine liver esterase; Sigma), the amount of DTNB cleavage observed is an indicator for stability of the cap on the prodrug compound (i.e. if the prodrug remains intact in solution the Abs412=0). Next, 5 uL of esterase (bought as an ammonium sulfate suspension that is subsequently centrifuged to isolate the esterase and then dissolved in reaction buffer prior to assaying) is combined with excess DTNB (100 μM final) and 22.5 μM pro-drug in 1 mL 50 mM Tris-HCl buffer (pH 7.5). Cleavage of the prodrug cap can be visualized in real time via DTNB cleavage at Abs412 by the esterase-liberated dithiol molecule.

esterase = assay: Pro-drug DTNB assay after incubation with esterase; format: biochemical, porcine; details: for dependence of activation on amount of esterase: varying amounts of esterase
From the text: as §1

Muc5B [2] = molecular target: T1, Muc5B (Homo sapiens, UniProt Q9HC84); assay: MUC5B reduction in human mucus samples; format: biochemical
T1 construct: 68, 70a/b and 76 all reduce MUC5B in human mucus samples; from tissue; host or cells: human mucus samples
From the text: (§2) This assay tests whether mucin has been reduced by mucolytic compounds. Various mucin-containing substrates (e.g. saliva, primary human bronchial epithelial (HBEs) cell mucus (either on cultures or harvested), and sputum) treated with our dithiol mucolytic compounds are quenched upon completion of the treatment period with a 10-fold excess of N-ethylmaleimide in order to alkylate any remaining active compound and to prevent further mucin reduction. A 10× concentrated sample loading buffer is diluted into each sample (lx TAE/5% glycerol/0.1% SDS/Bromophenol Blue). Samples (50 μg) were analyzed by electrophoresis on 0.9% agarose gels using a buffer system consisting of 1×TAE/0.1% SDS. The agarose gel was soaked for 15 min in 4×SSC (0.6 M NaCl, 60 mM Tri-sodium citrate dehydrate) containing 10 mM DTT before transferring the samples from the gel onto a nitrocellulose membrane by vacuum blotter. Unreduced and reduced Muc5B and Muc5AC were visualized on a LiCor Odyssey imaging detection system using a polyclonal antibody directed towards Muc5B.

[3] = tested on: human bronchial epithelial cells (HBE); assay: HBE ADME assay; format: in vitro ADME; details: four hours post-dose
Protocol: This assay was designed to determine if our dithiol prodrug compounds would be retained on the apical surface of human bronchial epithelial cells (HBE) (i.e. they are predominately cell impermeant) and if the compounds could be metabolized to their active forms (i.e. are there relevant hydrolytic enzymes present). Towards this goal, 15 μL of 10 mM dithiol prodrug compound was added to the apical surface of HBEs. At indicated time points, mucus from the apical surface was isolated with a PBS wash that contained 10-fold excess of N-ethylmaleimide in order to alkylate any remaining active compound and to prevent further mucin reduction. In addition the HBE cells and basolateral media were isolated at each time point. The form (e.g., prodrug, active metabolite, oxidized metabolite) and location (apical, cellular, basolateral media) of each compound was analyzed by LC-MS.

[4] = Stability of capped and uncapped compounds tested with DTNB; format: physicochemical; details: 4 days at room temperature; tested before and after incubation with esterase
From the text: This assay was designed to determine whether prodrug caps added on to our dithiol mucolytic compounds can be cleaved from the molecule. If so, the outcome would be an “active” compound that is able to reduce the S—S bond in DTNB. When cleaved the resulting compound, NTB (2-nitro-5-thiobenzoate), is a colored product that can be measured spectrophotometrically at an absorbance of 412 nm (Abs412). Using the molar extinction coefficient of NTB and measured maximum Abs412, the molar amount of DTNB that reacted with our mucolytic agents can be calculated. Dithiol mucolytic compounds react at a 2:1 stoichiometric ratio with DTNB (i.e. 2 molecules of NTB are produced for every one molecule of a dithiol compound that is oxidized). Dithiol prodrugs were mixed at a final concentration of 22.5 μM with excess DTNB (100 μM final) in 1 mL 50 mM Tris-HCl buffer (pH 7.5) and maximum Abs412 was measured. In the absence of a purified hydrolytic enzyme (e.g. porcine liver esterase; Sigma), the amount of DTNB cleavage observed is an indicator for stability of the cap on the prodrug compound (i.e. if the prodrug remains intact in solution the Abs412=0). […]

Muc5AC = molecular target: T2, Muc5AC (Homo sapiens, UniProt P98088); assay: Western blot analysis of HBE mucus, Muc5AC; format: cell-based; details: single treatment, 10 mM
T2 construct: endogenous in cells; host or cells: primary human bronchial epithelial (HBE) cultures
From the text: as §2

Muc5B [5] = molecular target: T1, Muc5B; assay: Western blot analysis of HBE mucus, Muc5B; format: cell-based; details: single treatment, 10 mM
From the text: as §2

human aminopeptidase = assay: DTNB assay after incubation with human aminopeptidase; format: biochemical; details: over an hour incubation, two concentrations of human aminopeptidase
[6] = Elimination of inhaled 14C-labeled NAC from the lungs in animal studies; format: in vivo; details: inhaled or intranasal, administered by inhalation, animal studies (unpublished observation)

Compound: NCCCC[C@H](N)C(=O)SCc1ccccc1CSC(=O)[C@@H](N)CCCCN [Compound 35, (2S,2′S)—S,S′-(1,2-phenylenebis(methylene)) bis(2,6-diaminohexanethioate)HCl salt]
activation by aminopeptidase in DTNB assay (human aminopeptidase): does not completely activate the compound

Compound: CC(=O)N[C@@H](CS)C(=O)O [NAC, N-acetyl cysteine]
half-life [6]: ~20 min

Compound: S-4-(2-(bis((2R,3R,4R,5R)-2,3,4,5,6-pentahydroxyhexyl)amino)ethoxy)-2-(mercaptomethyl)benzyl ethanethioate hydrochloride and S-5-(2-(bis((2R,3R,4R,5R)-2,3,4,5,6-pentahydroxyhexyl)amino)ethoxy)-2-(mercaptomethyl)benzyl ethanethioate hydrochloride [70a/b]
reduction of MUC5B in human mucus samples (Muc5B [2]): reduce MUC5B

Compound: Cl.OC[C@@H](O)[C@@H](O)[C@H](O)[C@H](O)CN(CCOc1ccc(CS)c(CS)c1)C[C@@H](O)[C@@H](O)[C@H](O)[C@H](O)CO [Compound 76, (2R,2′R,3R,3′R,4R,4′R,5R,5′R)-6,6′-((2-(3,4-bis(mercaptomethyl)phenoxy)ethyl)azanediyl)bis(hexane-1,2,3,4,5-pentaol) hydrochloride]
time to fully reduce all available disulfides ([1]; no enzyme): < 10 s
reduction of MUC5B in human mucus samples (Muc5B [2]): reduce MUC5B

Second part, led by results:

reducing activity in DTNB assay without enzyme [1]: does not reduce the disulfide bonds
reduction of MUC5B in human mucus samples (Muc5B [2]): reduce MUC5B
metabolism and oxidation on the apical surface of HBE cultures [3]: substantially metabolized and oxidized
Compound: CC(=O)SCc1ccc(OCCN(C[C@@H](O)[C@@H](O)[C@H](O)[C@H](O)CO)C[C@@H](O)[C@@H](O)[C@H](O)[C@H](O)CO)cc1CSC(C)=O [Compound 68, S,S′-((4-(2-(bis((2R,3R,4R,5R)-2,3,4,5,6-pentahydroxyhexyl)amino)ethoxy)-1,2-phenylene)bis(methylene)) diethanethioate hydrochloride]
dependence of activation on amount of esterase (esterase): concentration dependent increase in reaction rates
retention on the apical cell surface of HBE cultures [3]: substantially maintained on the apical cell surface

amount of esterase giving full activation (esterase; DTNB assay): ≥ 0.015 units
activation by esterase in DTNB assay (esterase; high concentration of esterase): fully activated immediately
activation by esterase in DTNB assay (esterase; low concentration of esterase, 15 min incubation): near fully activated
Compound: CC(=O)SCc1ccccc1CSC(C)=O [Compound 13, S,S′-(1,2-phenylenebis(methylene)) diethanethioate]
dependence of activation on amount of esterase (esterase): Increasing amounts of esterase correlated with increasing activation

stability against oxidation tested with DTNB [4]: prevents some but not all oxidation
reduction of Muc5AC on the apical surface of HBE cultures (Muc5AC): reduced
reduction of Muc5B on the apical surface of HBE cultures (Muc5B [5]): reduced
Compound: CC(=O)SCc1ccc(OCCN(C[C@H](O)[C@@H](O)[C@H](O)[C@H](O)CO)C[C@H](O)[C@@H](O)[C@H](O)[C@H](O)CO)cc1CSC(C)=O [Compound 23, S,S′-((4-(2-(bis((2S,3R,4R,5R)-2,3,4,5,6-pentahydroxyhexyl)amino)ethoxy)-1,2-phenylene)bis(methylene)) diethanethioate]
dependence of activation on amount of esterase (esterase): Increasing amounts of esterase increased activation

reducing activity in DTNB assay without enzyme [1]: remained inactive
Compound: CC(=O)SCc1cc(OCCNC(=O)[C@@H](N)CCCCN)c(OCCNC(=O)[C@@H](N)CCCCN)cc1CSC(C)=O [Compound 11, S,S′-((4,5-bis(2-((S)-2,6-diaminohexanamido)ethoxy)-1,2-phenylene)bis(methylene)) diethanethioate hydrochloride]
activation by esterase in DTNB assay (esterase; low and high concentration of esterase, approximately 15 min incubation): activated compound 11 to a similar level as compound 41
